According to US20210060033A1, “ORALLY ADMINISTERED COMBINATIONS OF BETA-LACTAM ANTIBIOTICS AND AVIBACTAM DERIVATIVES FOR TREATING BACTERIAL INFECTIONS” (priority 2019, published 2021):
Values after ≈ are worked out from the molar mass of the structure shown. Values joined by “and” are separate entries in the source; they are usually repeats but may differ in a detail not shown here. Equal values may be shown once. Where a name gives a salt, the structure may show the parent alone. Read-outs that look alike come from different tables or passages of the source.

Experiments:
[1] = test system: E. cloacae 0002; assay: Agar MIC, E. cloacae 0002; assay type: cell-based, Enterobacter cloacae
[2] = test system: K. pneumoniae 4582; assay: Microbroth MIC, K. pneumoniae 4582; assay type: cell-based, Klebsiella pneumoniae
[3] = test system: E. cloacae 0060; assay: Agar MIC, E. cloacae 0060; assay type: cell-based; conditions: Enterobacter cloacae; E. cloacae 0060 (cAmpC)
[4] = test system: E. coli 470-21711; assay: Microbroth MIC, E. coli 470-21711; assay type: cell-based; conditions: Escherichia coli, 47021711; E. coli 470-21711 (CTX-M-15)
[5] = test system: E. coli 136-4643; assay: Microbroth MIC, E. coli 136-4643; assay type: cell-based; conditions: Escherichia coli, 1364643; E. coli 136-4643 (CTX-M-15)
[6] = test system: K. pneumoniae 19701; assay: Agar MIC, K. pneumoniae 19701; assay type: cell-based, Klebsiella pneumoniae
[7] = test system: E. coli ATCC 35218; assay: Microbroth MIC, E. coli ATCC 35218; assay type: cell-based; conditions: Escherichia coli, ATCC35218; E. coli ATCC 35218 (TEM-1 Quality Control Strain)
[8] = test system: K. pneumoniae 79; assay: Agar MIC, K. pneumoniae 79; assay type: cell-based, Klebsiella pneumoniae
[9] = test system: E. cloacae 4182; assay: Agar MIC, E. cloacae 4182; assay type: cell-based; conditions: Enterobacter cloacae; E. cloacae 4182 (De-repressed AmpC)
[10] = test system: K. pneumoniae 700603; assay: Microbroth MIC, K. pneumoniae 700603; assay type: cell-based; conditions: Klebsiella pneumoniae; K. pneumoniae 700603 (SHV-18)
[11] = test system: K. pneumoniae 15160; assay: Agar MIC, K. pneumoniae 15160; assay type: cell-based; conditions: Klebsiella pneumoniae; K. pneumoniae 15160 (CTX-M-15, CTX-M-2, OXA-10, OXA-1, SHV-11, TEM-1)
[12] = Sprague-Dawley rats; cited from earlier work
[13] = test system: E. cloacae 4182; assay: Microbroth MIC, E. cloacae 4182; assay type: cell-based; conditions: Enterobacter cloacae; E. cloacae 4182 (De-repressed AmpC)
[14] = test system: E. cloacae 4184; assay: Microbroth MIC, E. cloacae 4184; assay type: cell-based; conditions: Enterobacter cloacae; E. cloacae 4184 (De-repressed AmpC)
[15] = test system: E. cloacae 0065; assay: Agar MIC, E. cloacae 0065; assay type: cell-based; conditions: Enterobacter cloacae; E. cloacae 0065 (cAmpC)
[16] = cited from earlier work
[17] = test system: E. coli 136-4643; assay: Agar MIC, E. coli 136-4643; assay type: cell-based; conditions: Escherichia coli, 1364643; E. coli 136-4643 (CTX-M-15)
[18] = test system: K. pneumoniae 908; assay: Agar MIC, K. pneumoniae 908; assay type: cell-based, Klebsiella pneumoniae
[19] = test system: K. pneumoniae ATCC BAA-1705; assay: Microbroth MIC, K. pneumoniae ATCC BAA-1705; assay type: cell-based; conditions: Klebsiella pneumoniae
[20] = test system: K. pneumoniae 4582; assay: Agar MIC, K. pneumoniae 4582; assay type: cell-based, Klebsiella pneumoniae
[21] = test system: K. pneumoniae 700603; assay: Agar MIC, K. pneumoniae 700603; assay type: cell-based; conditions: Klebsiella pneumoniae; K. pneumoniae 700603 (SHV-18)
[22] = test system: E. cloacae 4184; assay: Agar MIC, E. cloacae 4184; assay type: cell-based; conditions: Enterobacter cloacae; E. cloacae 4184 (De-repressed AmpC)
[23] = test system: E. coli ATCC 25922; assay: Agar MIC, E. coli ATCC 25922; assay type: cell-based; conditions: Escherichia coli, ATCC25922; E. coli ATCC 25922 (Wildtype)
[24] = test system: K. pneumoniae 27144; assay: Microbroth MIC, K. pneumoniae 27144; assay type: cell-based; conditions: Klebsiella pneumoniae; K. pneumoniae 27144 (CTX-M-15, OXA-1, OXA-48, SHV-11, TEM-1)
[25] = test system: E. coli 470-21711; assay: Agar MIC, E. coli 470-21711; assay type: cell-based; conditions: Escherichia coli, 47021711; E. coli 470-21711 (CTX-M-15)
[26] = test system: K. pneumoniae 19701; assay: Microbroth MIC, K. pneumoniae 19701; assay type: cell-based, Klebsiella pneumoniae
[27] = test system: K. pneumoniae 27144; assay: Agar MIC, K. pneumoniae 27144; assay type: cell-based; conditions: Klebsiella pneumoniae; K. pneumoniae 27144 (CTX-M-15, OXA-1, OXA-48, SHV-11, TEM-1)
[28] = test system: E. coli ATCC 35218; assay: Agar MIC, E. coli ATCC 35218; assay type: cell-based; conditions: Escherichia coli, ATCC35218; E. coli ATCC 35218 (TEM-1 Quality Control Strain)
[29] = test system: E. cloacae 0065; assay: Microbroth MIC, E. cloacae 0065; assay type: cell-based; conditions: Enterobacter cloacae; E. cloacae 0065 (cAmpC)
[30] = test system: K. pneumoniae 908; assay: Microbroth MIC, K. pneumoniae 908; assay type: cell-based, Klebsiella pneumoniae
[31] = test system: E. coli ATCC 25922; assay: Microbroth MIC, E. coli ATCC 25922; assay type: cell-based; conditions: Escherichia coli, ATCC25922
[32] = test system: E. cloacae 0060; assay: Microbroth MIC, E. cloacae 0060; assay type: cell-based; conditions: Enterobacter cloacae; E. cloacae 0060 (cAmpC)
[33] = test system: K. pneumoniae 79; assay: Microbroth MIC, K. pneumoniae 79; assay type: cell-based, Klebsiella pneumoniae
[34] = test system: E. cloacae 0002; assay: Microbroth MIC, E. cloacae 0002; assay type: cell-based, Enterobacter cloacae
[35] = test system: E. coli ATCC 25922; assay: One-compartment in vitro infection (chemostat) model, E. coli ATCC 25922; assay type: cell-based, Escherichia coli
[36] = test system: K. pneumoniae 15160; assay: Microbroth MIC, K. pneumoniae 15160; assay type: cell-based; conditions: Klebsiella pneumoniae; K. pneumoniae 15160 (CTX-M-15, CTX-M-2, OXA-10, OXA-1, SHV-11, TEM-1)
[37] = E. coli ATCC 25922 (Wildtype), read-out: Microbroth MIC

| SMILES | MIC [3] [µg/mL] | MIC [4] [µg/mL] | MIC [5] [µg/mL] | MIC [7] [µg/mL] | MIC [9] [µg/mL] | MIC [10] [µg/mL] | MIC [11] [µg/mL] | MIC [13] [µg/mL] | MIC [14] [µg/mL] | MIC [15] [µg/mL] | MIC [17] [µg/mL] | MIC [21] [µg/mL] | MIC [22] [µg/mL] | MIC [23] [µg/mL] | MIC [24] [µg/mL] | MIC [25] [µg/mL] | MIC [27] [µg/mL] | MIC [28] [µg/mL] | MIC [29] [µg/mL] | MIC [31, 37] [µg/mL] | further results |
| --- | --- | --- | --- | --- | --- | --- | --- | --- | --- | --- | --- | --- | --- | --- | --- | --- | --- | --- | --- | --- | --- |
| NC(=O)[C@@H]1CC[C@@H]2CN1C(=O)N2OS(=O)(=O)O [avibactam, [2S,5R]-2-carbamoyl-7-oxo-1,6-diazabicyclo[3.2.1]octan-6-yl hydrogen sulfate] | 16 | 16 | 256 | 16 | 16 | 64 | 16 | 32 | 32 | 8 | 8 | 64 | 16 | 8 | 512 | 8 | 64 | 8 | 16 | 16 | MIC ([1]; Enterobacter cloacae, E. cloacae 0002 (KPC-3, OXA-9, TEM-1A), read-out: agar MIC): 16 µg/mL; Microbroth MIC ([2]; K. pneumoniae 4582 (KPC-3), listed as AVI): 64 µg/mL and 32 µg/mL; MIC ([6]; Klebsiella pneumoniae, K. pneumoniae 19701 (KPC-2), read-out: agar MIC): 32 µg/mL; MIC ([8]; Klebsiella pneumoniae, K. pneumoniae 79 (KPC-3, FOX-5, TEM-1 SHV-11), read-out: agar MIC): 16 µg/mL; avibactam oral bioavailability (% F) [12]: 1.2 % F; plasma protein binding ([16]; assumed for free-drug profiles): 6.95%; MIC ([18]; Klebsiella pneumoniae, K. pneumoniae 908 (KPC-2, SHV-27, TEM-1), read-out: agar MIC): 128 µg/mL; MIC ([19]; ATCCBAA1705, K. pneumoniae ATCC BAA-1705 (KPC-2), read-out: Microbroth MIC): 16 µg/mL; MIC ([20]; Klebsiella pneumoniae, K. pneumoniae 4582 (KPC-3), read-out: agar MIC): 8 µg/mL; MIC ([26]; Klebsiella pneumoniae, K. pneumoniae 19701 (KPC-2), read-out: Microbroth MIC): > 512 µg/mL; MIC ([30]; Klebsiella pneumoniae, K. pneumoniae 908 (KPC-2, SHV-27, TEM-1), read-out: Microbroth MIC): 128 µg/mL; MIC [32]: 32 µg/mL; Microbroth MIC ([33]; K. pneumoniae 79 (KPC-3, FOX-5, TEM-1 SHV-11), listed as AVI): 16 µg/mL and 32 µg/mL; MIC ([34]; Enterobacter cloacae, E. cloacae 0002 (KPC-3, OXA-9, TEM-1A), read-out: Microbroth MIC): 32 µg/mL |
| Nc1nc(/C(=C/CC(=O)O)C(=O)N[C@@H]2C(=O)N3C(C(=O)O)=CCS[C@H]23)cs1 [ceftibuten, (6R,7R)-7-((Z)-2-(2-amino-4-thiazolyl)-4-carboxycrotonamido)-8-oxo-5-thia-1-azabicyclo(4.2.0)oct-2-ene-2-carboxylic acid] | > 64 | 64 (≈ 156 µM) | 32 (≈ 78 µM) | 0.125 (≈ 0.305 µM) | > 64 | 0.5 (≈ 1.22 µM) | 32 (≈ 78 µM) | > 64 | > 64 | > 64 | 8 (≈ 19.5 µM) | 0.5 (≈ 1.22 µM) | > 64 | 0.5 (≈ 1.22 µM) | 64 (≈ 156 µM) | 32 (≈ 78 µM) | 32 (≈ 78 µM) | 0.125 (≈ 0.305 µM) | > 64 | 0.5 (≈ 1.22 µM) | MIC ([1]; Enterobacter cloacae, 0002, read-out: agar MIC): 16 µg/mL (≈ 39 µM); MIC ([2]; Klebsiella pneumoniae, 4582, read-out: Microbroth MIC): 32 µg/mL (≈ 78 µM); Reduction (bacterial burden) ([35]; Ceftibuten 267 mg TID, Avibactam 0 mg TID): 1-log; ceftibuten % T>MIC required to achieve net bacterial stasis ([35]; administered every 8 hours): approximately 45%; bacterial burden response at 24 hours ([35]; ceftibuten 3.75 mg to 75 mg q8h): net bacterial stasis; bacterial burden response at 24 hours ([35]; ceftibuten 12.5 mg q8h): treatment failure; bacterial burden response at 24 hours ([35]; ceftibuten 100 mg and 267 mg q8h): reductions in bacterial burden; MIC ([6]; Klebsiella pneumoniae, 19701, read-out: agar MIC): 32 µg/mL (≈ 78 µM); MIC ([8]; Klebsiella pneumoniae, 79, read-out: agar MIC): 64 µg/mL (≈ 156 µM); MIC [36]: 64 µg/mL (≈ 156 µM); plasma protein binding ([16]; plasma): 65.0%; MIC ([18]; Klebsiella pneumoniae, 908, read-out: agar MIC): 32 µg/mL (≈ 78 µM); MIC ([19]; ATCCBAA1705, read-out: Microbroth MIC): 16 µg/mL (≈ 39 µM); MIC ([20]; Klebsiella pneumoniae, 4582, read-out: agar MIC): 16 µg/mL (≈ 39 µM); MIC ([26]; Klebsiella pneumoniae, 19701, read-out: Microbroth MIC): 64 µg/mL (≈ 156 µM); MIC ([30]; Klebsiella pneumoniae, 908, read-out: Microbroth MIC): 32 µg/mL (≈ 78 µM); MIC ([31]; E. coli ATCC 25922 (Wild type), read-out: MIC): 0.5 µg/mL (≈ 1.22 µM); MIC [32]: > 64 µg/mL; MIC ([33]; Klebsiella pneumoniae, 79, read-out: Microbroth MIC): > 64 µg/mL; MIC ([34]; Enterobacter cloacae, 0002, read-out: Microbroth MIC): 32 µg/mL (≈ 78 µM) |
